Test results: patent US20220249413A1, “SWELL 1 MODULATORS FOR TREATMENT OF NON-ALCOHOLIC FATTY LIVER DISEASE, IMMUNE DEFICIENCIES, MALE INFERTILITY AND VASCULAR DISEASES” (priority 2019, published 2022)

Target: T1, ICl,SWELL (Homo sapiens, UniProt Q8IWT6)
T1 construct: endogenous in cells; host or cells: HEK cells (printed 'BEK cells')
T1 sequence (Q8IWT6 1-810): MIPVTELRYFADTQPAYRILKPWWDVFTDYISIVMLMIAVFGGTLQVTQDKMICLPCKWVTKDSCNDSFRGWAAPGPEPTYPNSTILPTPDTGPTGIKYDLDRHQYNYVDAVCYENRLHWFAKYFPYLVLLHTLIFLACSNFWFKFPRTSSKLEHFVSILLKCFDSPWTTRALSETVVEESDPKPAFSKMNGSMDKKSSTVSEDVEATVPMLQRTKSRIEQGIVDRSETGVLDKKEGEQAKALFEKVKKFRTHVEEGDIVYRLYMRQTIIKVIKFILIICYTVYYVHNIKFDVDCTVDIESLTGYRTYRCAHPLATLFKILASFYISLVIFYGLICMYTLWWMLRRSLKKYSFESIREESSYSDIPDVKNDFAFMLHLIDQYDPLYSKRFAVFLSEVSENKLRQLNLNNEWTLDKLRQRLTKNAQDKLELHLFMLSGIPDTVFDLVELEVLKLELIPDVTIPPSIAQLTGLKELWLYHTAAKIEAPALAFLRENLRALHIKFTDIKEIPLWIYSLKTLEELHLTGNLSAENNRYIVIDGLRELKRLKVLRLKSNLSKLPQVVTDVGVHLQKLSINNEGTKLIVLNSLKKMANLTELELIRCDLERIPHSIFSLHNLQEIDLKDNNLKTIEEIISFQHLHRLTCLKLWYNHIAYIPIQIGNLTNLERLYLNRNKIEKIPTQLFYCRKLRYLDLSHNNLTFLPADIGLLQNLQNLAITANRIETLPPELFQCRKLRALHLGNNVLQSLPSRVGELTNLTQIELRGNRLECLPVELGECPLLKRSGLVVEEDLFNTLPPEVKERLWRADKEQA
Assay: ICl,SWELL patch-clamp upon hypotonic stimulation
Format: cell-based
Conditions: 10 μM Smod1, HEK cells (FIG. 2f)
Procedure: For Smod1 (DCPIB) mediated induction of SWELL1 and insulin signaling studies in 3T3-F442A preadipocytes, the cells were incubated with either vehicle (DMSO) or 10 μM Smod1 for 96 h. The cells were serum starved for 6 h (+DMSO or Smod1) and stimulated with 0, 3 and 10 nM insulin containing media (−DMSO or Smod1), as described above for 15 mins and the lysates were collected. In the case of 3T3-F442A adipocytes, the WT and KO cells were treated with either vehicle (DMSO) or 10 μM Smod1 following 7-11 days of differentiation for 96 h and then stimulated with 0 and 10 nM insulin for 15 min, as described above. Human embryonic kidney (HEK) cells were cultured and maintained in 90% DMEM (25 mM D-Glucose and 4 mM L-Glutamine) containing 10% fetal bovine serum (FBS) and 100 IU penicillin and 100 μg/ml streptomycin media.
Electrophysiology Patch-clamp recordings of β-cells and mature adipocytes were performed as described previously (Zhang et al., Nat Cell Biol, 19, 504-517, 2017; Kang et al., Nature Communications, 9, 367, 2018). 3T3-F442A WT and KO preadipocytes were prepared as described in the Cell culture section above. […] Recordings were measured using Axopatch 200B amplifier paired to a Digidata 1550 digitizer using pClamp 10.4 software. […] The images were further analyzed for band intensities using ImageJ software. […]

CCCCC1(C2CCCC2)Cc2cc(OCCCC(=O)O)c(Cl)c(Cl)c2C1=O (stereo not shown) [Smod1, 4-[(2-Butyl-6,7-dichloro-2-cyclopentyl-2,3-dihydro-1-oxo-1H-inden-5-yl)oxy]butanoic acid]
ICl,SWELL inward and outward current after hypotonic stimulation: inhibition
